# US9365566B2 (Takeda Pharmaceutical Company Limited, priority 2012, dated 2016)
# Biological target: T1, human BTK (Homo sapiens, UniProt Q06187)
# T1 construct: GST (Glutathione-S-Transferase) (cleaved yes); made in house; host or cells: Spodoptera frugiperda Sf9 cells (baculovirus, Bac-to-Bac)
# Assay: BTK inhibition assay: BTK-mediated phosphorylation of FAM-labeled substrate 5-FAM-EEPLYWSFPAKKK-NH2 (Caliper LC-3000)
# Format: biochemical
# Conditions: pIC50 = -log(IC50), IC50 molar; residues 382 to 659 of human BTK; incubated at room temperature for 60 minutes; larger values represent higher potency
# Text: The activity of compounds as BTK inhibitors may be determined by a variety of methods, including in vitro and in vivo methods.
# This construct engineers an in-frame translational fusion with the Glutathione-S-Transferase (GST) protein for use in affinity purification. The fusion protein derived from this construct contains a protease recognition sequence to liberate the BTK from the GST affinity tag. High-titer baculoviral stocks, generated using the Bac-to-Bac® system (Invitrogen), are used to express the recombinant protein in Spodoptera frugiperda Sf9 cells in 10 L Wave bags. Recombinant proteins are isolated from cellular extracts by passage over Glutathione Sepharose 4B (GE Healthcare) and the BTK moiety is released from the GST affinity tag by treatment with PreScission protease. The BTK recombinant protein is further purified by size exclusion chromatography (HiLoad 16/60 Superdex 200, GE Healthcare) in a buffer containing 20 mM Hepes (pH 7.4), 50 mM NaCl, 10 mM MgCl2, 0.25 mM TCEP and 0.1 mM EDTA. The purity of the fractions is assessed by SDS PAGE and the peak protein fractions are pooled and concentrated using Amicon Ultra-15 Centrifugal Filter Devices (Millipore).
# The inhibitory properties of compounds relative to BTK is determined using a black 384-well-plate format in a buffer which contains 50 mM Hepes, 10 mM NaCl, 10 mM MgCl2, 0.2 mM EDTA, 0.01% Brij35®, 1 mM DTT, and 0.1 mg/mL BSA at pH 7.3. The test compound is prepared in DMSO using 2-fold serial dilutions for 11 data points, which are added to the buffer so that each dilution contains 3% DMSO. […] The reaction mixtures are incubated at room temperature for 60 minutes and then quenched by adding 25 μL of 50 mM EDTA. To quantify the fluorescent-labeled substrate and product following reaction, the test plate is loaded on a Caliper LC-3000, which measures percent of conversion by microfluidic-based separation.
# The compounds were tested in accordance with the assay described on page 34 of the specification.
# T1 sequence (Q06187 382-659): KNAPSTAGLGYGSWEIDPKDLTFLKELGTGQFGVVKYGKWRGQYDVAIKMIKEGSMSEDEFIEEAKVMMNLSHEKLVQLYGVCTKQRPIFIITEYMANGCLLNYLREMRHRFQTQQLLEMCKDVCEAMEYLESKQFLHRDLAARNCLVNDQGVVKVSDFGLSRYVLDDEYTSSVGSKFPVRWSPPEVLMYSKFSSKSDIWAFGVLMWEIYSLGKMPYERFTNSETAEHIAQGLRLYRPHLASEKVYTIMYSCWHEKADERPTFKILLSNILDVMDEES
row,SMILES,IC50
1,"NC(=O)c1nnc2c(-c3ccc4cn[nH]c4c3)c(Cl)ccc2c1N [Example 54, 4-amino-7-chloro-8-(1H-indazol-6-yl)cinnoline-3-carboxamide]",15.8 nM
2,"Cc1ccc2c(N)c(C(N)=O)nnc2c1-c1ccc2cc[nH]c2c1 [Example 26, 4-amino-8-(1H-indol-6-yl)-7-methylcinnoline-3-carboxamide]",158 nM
3,"Cc1cc2cn[nH]c2cc1-c1cc(F)cc2c(N)c(C(N)=O)nnc12 [Example 136, 4-amino-6-fluoro-8-(5-methyl-1H-indazol-6-yl)cinnoline-3-carboxamide]",10 nM
4,"NC(=O)c1nnc2c(-c3ccc4nc(-c5ccccc5)[nH]c4c3)cccc2c1N [Example 115, 4-amino-8-(2-phenyl-1H-benzo[d]imidazol-6-yl)cinnoline-3-carboxamide]",79.4 nM
5,"CCn1cnc2cc(-c3c(C)ccc4c(N)c(C(N)=O)nnc34)ccc21 [Example 132, 4-amino-8-(1-ethyl-1H-benzo[d]imidazol-5-yl)-7-methylcinnoline-3-carboxamide]",1260 nM
6,"Cc1ccc2c(N)c(C(N)=O)nnc2c1-c1ccc2c(c1)CN(CCC(C)(C)O)C2=O [Example 128, 4-amino-8-(2-(3-hydroxy-3-methylbutyl)-1-oxoisoindolin-5-yl)-7-methylcinnoline-3-carboxamide]",7.94 nM
7,"NC(=O)c1nnc2c(-c3ccc4nc(NCC5C6CC7CC(C6)CC5C7)[nH]c4c3)cccc2c1N (centres unmarked) [Example 94, 8-(2-((adamantan-2-ylmethyl)amino)-1H-benzo[d]imidazol-6-yl)-4-aminocinnoline-3-carboxamide]",63.1 nM
8,"Cc1ccc2c(N)c(C(N)=O)nnc2c1-c1ccc2cn(C)nc2c1 [Example 52, 4-amino-7-methyl-8-(2-methyl-2H-indazol-6-yl)cinnoline-3-carboxamide]",2510 nM
9,"Cc1cc2cn[nH]c2cc1-c1cc(N2CCOCC2)cc2c(N)c(C(N)=O)nnc12 [Example 137, 4-amino-8-(5-methyl-1H-indazol-6-yl)-6-morpholinocinnoline-3-carboxamide]",7.94 nM
10,"Cc1cc(F)c2c(N)c(C(N)=O)nnc2c1-c1ccc2c(c1)CNC2=O [Example 126, 4-amino-5-fluoro-7-methyl-8-(1-oxoisoindolin-5-yl)cinnoline-3-carboxamide]",12.6 nM
11,"Cc1cc(F)c2c(N)c(C(N)=O)nnc2c1-c1ccc2cn[nH]c2c1 [Example 56, 4-amino-5-fluoro-8-(1H-indazol-6-yl)-7-methylcinnoline-3-carboxamide]",12.6 nM
12,"CC(C)(C)c1ccc(-c2nc3ccc(-c4cccc5c(N)c(C(N)=O)nnc45)cc3[nH]2)cc1 [Example 117, 4-amino-8-(2-(4-tert-butylphenyl)-1H-benzo[d]imidazol-6-yl)cinnoline-3-carboxamide]",79.4 nM
13,"Cc1ccc2c(N)c(C(N)=O)nnc2c1-c1ccc2c(C#N)n[nH]c2c1 [Example 96, 4-amino-8-(3-cyano-1H-indazol-6-yl)-7-methylcinnoline-3-carboxamide]",158 nM
14,"NC(=O)c1nnc2c(-c3ccc4c(c3)CNC4=O)ccc(F)c2c1N [Example 125, 4-amino-5-fluoro-8-(1-oxoisoindolin-5-yl)cinnoline-3-carboxamide]",39.8 nM
15,"NC(=O)c1nnc2c(-c3ccc4nc[nH]c4c3)cccc2c1N [Example 4, 4-amino-8-(1H-benzo[d]imidazol-6-yl)cinnoline-3-carboxamide]",79.4 nM
16,"Cc1c(-c2cccc3c(N)c(C(N)=O)nnc23)ccc2[nH]ncc12 [Example 31, 4-amino-8-(4-methyl-1H-indazol-5-yl)cinnoline-3-carboxamide]",39.8 nM
17,"NC(=O)c1nnc2c(-c3ccc4nc(-c5cccc(Cl)c5)[nH]c4c3)cccc2c1N [Example 76, 4-amino-8-(2-(3-chlorophenyl)-1H-benzo[d]imidazol-6-yl)cinnoline-3-carboxamide]",126 nM
18,"COc1cc2[nH]ncc2cc1-c1ccc(F)c2c(N)c(C(N)=O)nnc12 [Example 109, 4-amino-5-fluoro-8-(6-methoxy-1H-indazol-5-yl)cinnoline-3-carboxamide]",2 nM
19,"NC(=O)c1nnc2c(-c3ccc4nc(NCC5CC5)[nH]c4c3)cccc2c1N [Example 65, 4-amino-8-(2-((cyclopropylmethyl)amino)-1H-benzo[d]imidazol-6-yl)cinnoline-3-carboxamide]",63.1 nM
20,"NC(=O)c1nnc2c(-c3ccc4nc(CCc5ccccc5)[nH]c4c3)cccc2c1N [Example 69, 4-amino-8-(2-phenethyl-1H-benzo[d]imidazol-6-yl)cinnoline-3-carboxamide]",31.6 nM
21,"Cc1ccc2c(N)c(C(N)=O)nnc2c1-c1cnc2c(c1)ncn2C [Example 98, 4-amino-7-methyl-8-(3-methyl-3H-imidazo[4,5-b]pyridin-6-yl)cinnoline-3-carboxamide]",5010 nM
22,"NC(=O)c1nnc2c(-c3ccc4c(c3)CN(c3ccccc3)C4=O)cccc2c1N [Example 121, 4-amino-8-(1-oxo-2-phenylisoindolin-5-yl)cinnoline-3-carboxamide]",126 nM
23,"Cn1ccc2ccc(-c3cccc4c(N)c(C(N)=O)nnc34)cc21 [Example 9, 4-amino-8-(1-methyl-1H-indol-6-yl)cinnoline-3-carboxamide]",1000 nM
24,"COc1ccc(-c2ccc3cn[nH]c3c2)c2nnc(C(N)=O)c(N)c12 [Example 38, 4-amino-8-(1H-indazol-6-yl)-5-methoxycinnoline-3-carboxamide]",39.8 nM

# Continued by falling IC50, values first:
row,IC50,SMILES
1,39800 nM,"Cn1cnc2cc(-c3cccc4c(N)c(C(N)=O)nnc34)cnc21 [Example 13, 4-amino-8-(3-methyl-3H-imidazo[4,5-b]pyridin-6-yl)cinnoline-3-carboxamide]"
2,2510 nM,"NC(=O)c1nnc2c(-c3ccc4nc(CC5CCOCC5)[nH]c4c3)cccc2c1N [Example 81, 4-amino-8-(2-((tetrahydro-2H-pyran-4-yl)methyl)-1H-benzo[d]imidazol-6-yl)cinnoline-3-carboxamide]"
3,1000 nM,"CN(Cc1ccccc1)c1nc2ccc(-c3cccc4c(N)c(C(N)=O)nnc34)cc2[nH]1 [Example 92, 4-amino-8-(2-(benzyl(methyl)amino)-1H-benzo[d]imidazol-6-yl)cinnoline-3-carboxamide]"
4,794 nM,"NC(=O)c1nnc2c(-c3ccc4nc(C5CCCOC5)[nH]c4c3)cccc2c1N (centres unmarked) [Example 83, 4-amino-8-(2-(tetrahydro-2H-pyran-3-yl)-1H-benzo[d]imidazol-6-yl)cinnoline-3-carboxamide]"
5,158 nM,"Cn1ncc2cc(-c3cccc4c(N)c(C(N)=O)nnc34)ccc21 [Example 2, 4-amino-8-(1-methyl-1H-indazol-5-yl)cinnoline-3-carboxamide]"
6,100 nM,"Cc1ccc2c(N)c(C(N)=O)nnc2c1-c1cnc2ncn(C)c2c1 [Example 97, 4-amino-7-methyl-8-(1-methyl-1H-imidazo[4,5-b]pyridin-6-yl)cinnoline-3-carboxamide]"
7,100 nM,"NC(=O)c1nnc2c(-c3ccc4nc(-c5ccc(F)cc5F)[nH]c4c3)cccc2c1N [Example 118, 4-amino-8-(2-(2,4-difluorophenyl)-1H-benzo[d]imidazol-6-yl)cinnoline-3-carboxamide]"
8,100 nM,"NC(=O)c1nnc2c(-c3ccc4nc(Nc5ccccc5)[nH]c4c3)cccc2c1N [Example 87, 4-amino-8-(2-(phenylamino)-1H-benzo[d]imidazol-6-yl)cinnoline-3-carboxamide]"
9,79.4 nM,"NC(=O)c1nnc2c(-c3ccc4nc(-c5ccccc5Cl)[nH]c4c3)cccc2c1N [Example 70, 4-amino-8-(2-(2-chlorophenyl)-1H-benzo[d]imidazol-6-yl)cinnoline-3-carboxamide]"
10,31.6 nM,"Cc1ccc2c(N)c(C(N)=O)nnc2c1-c1cc(F)c2nc[nH]c2c1 [Example 101, 4-amino-8-(4-fluoro-1H-benzo[d]imidazol-6-yl)-7-methylcinnoline-3-carboxamide]"
11,25.1 nM,"Cc1ccc2c(N)c(C(N)=O)nnc2c1-c1ccc2c(c1)CCNC2=O [Example 63, 4-amino-7-methyl-8-(1-oxo-1,2,3,4-tetrahydroisoquinolin-6-yl)cinnoline-3-carboxamide]"
12,15.8 nM,"NC(=O)c1nnc2c(-c3ccc4nc(NCc5ccccc5)[nH]c4c3)cccc2c1N [Example 90, 4-amino-8-(2-(benzylamino)-1H-benzo[d]imidazol-6-yl)cinnoline-3-carboxamide]"
13,10 nM,"Cc1cc2[nH]ncc2cc1-c1cccc2c(N)c(C(N)=O)nnc12 [Example 49, 4-amino-8-(6-methyl-1H-indazol-5-yl)cinnoline-3-carboxamide]"
14,7.94 nM,"NC(=O)c1nnc2c(-c3ccc4nc(NCC5CCCC5)[nH]c4c3)cccc2c1N [Example 93, 4-amino-8-(2-(cyclopentylmethylamino)-1H-benzo[d]imidazol-6-yl)cinnoline-3-carboxamide]"
